Data as given in patent US10682370B2, “Topical antiviral composition containing a local anesthetic and method of making the same” (priority 2013, dated 2020).
Counter-ions that a name gives are not always drawn.

Columns and labels:
[1] = test system: HSV-1; conditions: in vitro; cited from earlier work
[2] = Accelerated stability of sorivudine/lidocaine cream formulas stored in 40° C./75% RH; assay type: physicochemical
Text: In the above Table 3, the six (6)-month accelerated stability assay data's for both formulations, i.e. Example 8 and Example 9 (containing BHT) were stable.

[3] = administered concurrently with 5-FU; cited from earlier work
[4] = acidic environment, accelerated test
[5] = neutral environment, 6 month accelerated test

SMILES | Selectivity ratio for the inhibitory activity against HSV-1 [1] | Change of assay (in words) [2, 4] | Change of assay (in words) [2, 5] | Assay of sorivudine remaining [2, 5] [%] | Toxicity on concurrent administration with 5-fluorouracil (5-FU) [3]
Nc1nc2c(ncn2COCCO)c(=O)[nH]1 [Acyclovir, acyclovir] | about 2000 |  |  |  | 
CCN(CC)CC(=O)Nc1c(C)cccc1C [lidocaine HCl, 2-(diethylamino)-N-(2,6-dimethylphenyl)-acetamide] |  | no change | almost no change |  | 
O=c1[nH]c(=O)n([C@@H]2O[C@H](CO)[C@@H](O)[C@@H]2O)cc1/C=C/Br [sorivudine] |  | no change |  | 66 | major toxicity (myelosuppression)
